Data reported in patent US20040224898A1, “Compositions and methods for promoting lipid mobilization in humans” (priority 2002, published 2004).
Bridges are numbered along the chain shown (N, C = ends). Where no end group is shown, it is not given here.

Experiments:
Format in all cases: cell-based
[1] = tested on: human adipocytes; experiment: Release of tritium label from radiolabeled palmitate (lipid mobilizing activity); conditions: for Ability to mobilize lipids in adipocytes: conclusion of Example 1, murine adipocytes
Method: Lipid mobilizing activity was assessed by assaying release of tritium label from radiolabeled palmitate. This assay was performed by maintaining human pre-adipocytes in Adipocyte Growth Medium (AGM), which is Dulbecco's Modified Eagle's Medium (DMEM) mixed 1:1 by volume with Ham's F-10 medium. Ham's F-10 medium comprises 15 millimolar HEPES buffer adjusted to pH 7.4 and supplemented with biotin, pantothenate, human recombinant insulin, dexamethasone, fungicide, bactericide, and 3% (v/v) fetal bovine serum). Pre-adipocytes differentiated to become mature adipocytes by three weeks of maintenance in AGM. On the day prior to assay, the adipocytes were washed and incubated overnight in Krebs-Ringers buffer comprising 0.1% fatty acid-free bovine serum albumin (BSA) and comprising 1 microCurie per milliliter of tritiated (9,10-^3H) palmitate. The following day, the medium was removed, and the cells were washed three times […]. Isoproterenol (0 to 5×10^−8 molar), Schistocera gregaria AKH II (0 to 5×10^−5 molar), or Krebs-Ringer buffer (with 0.1% fatty acid-free BSA) containing neither of these was added to the cell suspension in a volume of 150 microliters. The suspensions were incubated for 4 hours at 37° C., and then 100 microliters of each sample was subjected to scintillation counting to detect released label in the supernatant. The total amount of label incorporated was determined for each well by solubilizing the cells using 1% sodium dodecyl sulfate and subjecting the entire contents of the well to scintillation counting. Fractional release of label was calculated by dividing the amount of label detected in cell supernatant by the total amount of label detected in the supernatant and in the cells remaining in the well, and percentage release was calculated by multiplying fractional release by 100.
A similar study was done using the same methods, except that cockroach hypertrehalosemic factor (0 to 5×10^−5 molar) was used in place of S. gregaria AKH II.
A similar tritium label release experiment performed using Heliothis zea AKH II and Locusta migratoria, except that a two-hour incubation period was used in place of a 4 hour incubation period.

[2] = tested on: human adipocytes; experiment: Glycerol release assay; conditions: for Ability to promote lipid mobilization in human adipocytes: conclusion of Example 2; for Lipid mobilizing activity: control hormones, Example 2
Method: (§1) Human pre-adipocytes were isolated by liposuction and maintained in AGM for three weeks in order to permit the pre-adipocytes to differentiate to become mature adipocytes. AGM was removed, and adipocytes were incubated in Krebs-Ringers buffer comprising 0.1% fatty acid-free BSA at 37° C. for five hours in the presence of selected concentrations (10^−9 to 10^−5 molar) of one of Schistocera gregaria AKH II, cockroach hypertrehalosemic factor (obtained from Sigma Chemical Co, St. Louis, Mo., catalog number P0175), and Locusta migratoria AKH I (obtained from American Peptide Co., Sunnyvale, Calif., catalog number 60-9-18). Glycerol released from the adipocytes was assayed using a commercially available kit (GPO-trinder assay kit available form Sigma Chemical Company, St. Louis, Mo.).
A similar experiment was performed, in which glycerol release from adipocytes was assessed in the presence of the Locusta migratoria AKH I or the cockroach hypertrehalosemic factor or in the presence of isoproterenol.

[3] = tested on: human adipocytes; experiment: Effect of propanolol on agent-induced glycerol release; conditions: for Glycerol Release, No Agent (medium concentration in millimolar): propanolol alone
Method: as §1
Glycerol release assays were performed as described in Example 2, except that the assays were performed using single selected concentrations of one of cockroach hypertrehalosemic factor, Locusta migratoria AKH I, and isoproterenol and multiple selected concentrations of propanolol.

[4] = agent 1 × 10^−8 molar, 4 hours, 37° C., Table 5 experiment
[5] = agent 1 × 10^−9 molar, 4 hours, 37° C., Table 5 experiment
[6] = agent 1 × 10^−10 molar, 4 hours, 37° C., Table 5 experiment
[7] = agent 1 × 10^−5 molar, five hours, 37° C., Table 8 experiment
[8] = agent 1 × 10^−6 molar, five hours, 37° C., Table 8 experiment
[9] = agent 1 × 10^−7 molar, five hours, 37° C., Table 8 experiment
[10] = agent 1 × 10^−8 molar, five hours, 37° C., Table 8 experiment
[11] = agent 1 × 10^−9 molar, five hours, 37° C., Table 8 experiment
[12] = agent 1 × 10^−6, Table 9 experiment
[13] = agent 1 × 10^−7, Table 9 experiment
[14] = agent 1 × 10^−8, Table 9 experiment

Molecule: ELNFSTGW (listed as Schistocerca gregaria) [Schistocera gregaria AKH II, insect adipokinetic hormone of the desert locust]
- % Tritium Label Release with Agent ([1]; agent 1 × 10^−5 molar, 4 hours, 37° C., Table 5 experiment): 14.28%
- % Tritium Label Release with Agent ([1]; agent 1 × 10^−6 molar, 4 hours, 37° C., Table 5 experiment): 13.38%
- % Tritium Label Release with Agent ([1]; agent 1 × 10^−7 molar, 4 hours, 37° C., Table 5 experiment): 10.76%
- % Tritium Label Release with Agent [1, 4]: 10.76%
- % Tritium Label Release with Agent [1, 5]: 9.6%
- % Tritium Label Release with Agent [1, 6]: 10.74%
- % Tritium Label Release with Agent ([1]; agent 5 × 10^−5 molar, 4 hours, 37° C., Table 5 experiment): 16.65%
- % Tritium Label Release with Agent ([1]; agent 5 × 10^−6 molar, 4 hours, 37° C., Table 5 experiment): 14.94%
- % Tritium Label Release with Agent ([1]; agent 5 × 10^−7 molar, 4 hours, 37° C., Table 5 experiment): 11.31%
- Ability to mobilize lipids in adipocytes [1]: able to mobilize lipids
- Glycerol Release with Agent (medium concentration in millimolar) [2, 7]: 0.693 millimolar
- Glycerol Release with Agent (medium concentration in millimolar) [2, 8]: 0.628 millimolar
- Glycerol Release with Agent (medium concentration in millimolar) [2, 9]: 0.530 millimolar
- Glycerol Release with Agent (medium concentration in millimolar) [2, 10]: 0.523 millimolar
- Glycerol Release with Agent (medium concentration in millimolar) [2, 11]: 0.486 millimolar
- Ability to promote lipid mobilization in human adipocytes [2]: able to promote lipid mobilization

Molecule: ELNFTPNWGT (listed as Schistocerca gregaria) [Locusta migratoria AKH I, insect adipokinetic hormone, American Peptide Co. catalog number 60-9-18]
- % Tritium Label Release with Agent ([1]; agent 1 × 10^−5 molar, two-hour incubation, Table 7): 10.8%
- % Tritium Label Release with Agent ([1]; agent 1 × 10^−6 molar, two-hour incubation, Table 7): 7.52%
- % Tritium Label Release with Agent ([1]; agent 1 × 10^−7 molar, two-hour incubation, Table 7): 6.34%
- % Tritium Label Release with Agent ([1]; agent 1 × 10^−8 molar, two-hour incubation, Table 7): 7.00%
- % Tritium Label Release with Agent ([1]; agent 1 × 10^−9 molar, two-hour incubation, Table 7): 7.44%
- % Tritium Label Release with Agent ([1]; agent 1 × 10^−10 molar, two-hour incubation, Table 7): 7.62%
- Ability to mobilize lipids in adipocytes [1]: able to mobilize lipids
- Glycerol Release with Agent (medium concentration in millimolar) ([2]; agent 1 × 10^−5, Table 9 experiment): 0.0871 ± 0.0134 millimolar
- Glycerol Release with Agent (medium concentration in millimolar) [2, 7]: 0.691 millimolar
- Glycerol Release with Agent (medium concentration in millimolar) [2, 12]: 0.0427 ± 0.0129 millimolar
- Glycerol Release with Agent (medium concentration in millimolar) [2, 8]: 0.467 millimolar
- Glycerol Release with Agent (medium concentration in millimolar) [2, 13]: 0.0336 ± 0.0082 millimolar
- Glycerol Release with Agent (medium concentration in millimolar) [2, 9]: 0.490 millimolar
- Glycerol Release with Agent (medium concentration in millimolar) [2, 14]: 0.0209 ± 0.0110 millimolar
- Glycerol Release with Agent (medium concentration in millimolar) [2, 10]: 0.476 millimolar
- Glycerol Release with Agent (medium concentration in millimolar) [2, 11]: 0.611 millimolar
- Ability to promote lipid mobilization in human adipocytes [2]: able to promote lipid mobilization
- Glycerol Release with Agent (medium concentration in millimolar) ([3]; agent 10 micromolar, propanolol 0 molar): 0.0871 ± 0.0134 millimolar
- Glycerol Release with Agent (medium concentration in millimolar) ([3]; agent 10 micromolar, propanolol 1 × 10^−5 molar): 0.2214 ± 0.0287 millimolar
- Glycerol Release with Agent (medium concentration in millimolar) ([3]; agent 10 micromolar, propanolol 1 × 10^−6 molar): 0.2169 ± 0.0294 millimolar
- Glycerol Release with Agent (medium concentration in millimolar) ([3]; agent 10 micromolar, propanolol 1 × 10^−7 molar): 0.2486 ± 0.0249 millimolar

Molecule: CC(C)NCC(O)c1ccc(O)c(O)c1 (stereo not shown) [Isoproterenol, isoproterenol, reference compound]
- % Tritium Label Release with Agent [1, 4]: 15.58%
- % Tritium Label Release with Agent ([1]; agent 1 × 10^−8 molar, 4 hours, 37° C., Table 6 experiment): 9.8%
- % Tritium Label Release with Agent [1, 5]: 12.67%
- % Tritium Label Release with Agent ([1]; agent 1 × 10^−9 molar, 4 hours, 37° C., Table 6 experiment): 6.67%
- % Tritium Label Release with Agent [1, 6]: 11.11%
- % Tritium Label Release with Agent ([1]; agent 1 × 10^−10 molar, 4 hours, 37° C., Table 6 experiment): 8.97%
- % Tritium Label Release with Agent ([1]; agent 1 × 10^−11 molar, 4 hours, 37° C., Table 5 experiment): 9.9%
- % Tritium Label Release with Agent ([1]; agent 1 × 10^−11 molar, 4 hours, 37° C., Table 6 experiment): 5.87%
- % Tritium Label Release with Agent ([1]; agent 5 × 10^−8 molar, 4 hours, 37° C., Table 5 experiment): 16.99%
- % Tritium Label Release with Agent ([1]; agent 5 × 10^−8 molar, 4 hours, 37° C., Table 6 experiment): 10.8%
- % Tritium Label Release with Agent ([1]; agent 5 × 10^−9 molar, 4 hours, 37° C., Table 5 experiment): 14.14%
- % Tritium Label Release with Agent ([1]; agent 5 × 10^−9 molar, 4 hours, 37° C., Table 6 experiment): 5.93%
- % Tritium Label Release with Agent ([1]; agent 5 × 10^−10 molar, 4 hours, 37° C., Table 5 experiment): 11.21%
- % Tritium Label Release with Agent ([1]; agent 5 × 10^−10 molar, 4 hours, 37° C., Table 6 experiment): 7.58%
- % Tritium Label Release with Agent ([1]; agent 5 × 10^−11 molar, 4 hours, 37° C., Table 5 experiment): 10.62%
- % Tritium Label Release with Agent ([1]; agent 5 × 10^−11 molar, 4 hours, 37° C., Table 6 experiment): 6.96%
- % Tritium Label Release with Agent ([1]; agent 5 × 10^−12 molar, 4 hours, 37° C., Table 5 experiment): 10.12%
- % Tritium Label Release with Agent ([1]; agent 5 × 10^−12 molar, 4 hours, 37° C., Table 6 experiment): 6.81%
- Glycerol Release with Agent (medium concentration in millimolar) [2, 12]: 0.5172 ± 0.1659 millimolar
- Glycerol Release with Agent (medium concentration in millimolar) [2, 13]: 0.2169 ± 0.0316 millimolar
- Glycerol Release with Agent (medium concentration in millimolar) [2, 14]: 0.1325 ± 0.0244 millimolar
- Glycerol Release with Agent (medium concentration in millimolar) ([2]; agent 1 × 10^−9, Table 9 experiment): 0.0381 ± 0.011 millimolar
- Glycerol Release with Agent (medium concentration in millimolar) ([3]; agent 1 micromolar, propanolol 0 molar): 0.5172 millimolar
- Glycerol Release with Agent (medium concentration in millimolar) ([3]; agent 1 micromolar, propanolol 1 × 10^−5 molar): 0.2305 millimolar
- Glycerol Release with Agent (medium concentration in millimolar) ([3]; agent 1 micromolar, propanolol 1 × 10^−6 molar): 0.411 millimolar
- Glycerol Release with Agent (medium concentration in millimolar) ([3]; agent 1 micromolar, propanolol 1 × 10^−7 molar): 0.6533 millimolar

Molecule: SYSMEHFRWGKPV (Ac-SYSMEHFRWGKPV-NH2; listed as Insect sp.) [alpha-melanocyte stimulating hormone, reference compound]
- Lipid mobilizing activity [2]: No lipid mobilizing activity could be detected

Molecule: DFDMLRCMLGRVYRPCWQV (disulfide 7-16 (inferred); listed as Insect sp.) [melanocyte concentrating hormone, reference compound]
- Lipid mobilizing activity [2]: No lipid mobilizing activity could be detected

Molecule: CC(C)NCC(O)COc1cccc2ccccc12 (stereo not shown) [Propanolol, propanolol]
- Inhibition by propanolol of glycerol release induced by isoproterenol ([3]; adipocytes): able to inhibit glycerol release
- Glycerol Release, No Agent (medium concentration in millimolar) ([3]; 1 × 10^−5 molar): 0.0463 ± 0.0042 millimolar
- Glycerol Release, No Agent (medium concentration in millimolar) ([3]; 1 × 10^−6 molar): 0.0417 ± .00072 millimolar
- Glycerol Release, No Agent (medium concentration in millimolar) ([3]; 1 × 10^−7 molar): 0.0399 ± 0.0069 millimolar
- Glycerol Release, No Agent (medium concentration in millimolar) ([3]; 1 × 10^−8 molar): 0.0399 ± 0.0083 millimolar
